Assay results published in publication PMC8453745, “Human Mass Balance and Metabolite Profiling of [^14C]‐Pamiparib, a Poly (ADP‐Ribose) Polymerase Inhibitor, in Patients With Advanced Cancer” (Clinical Pharmacology in Drug Development, 2021).

Experiments:
[1] = mass balance: recovery of radioactivity in urine and feces; format: in vivo, human
Text: (§1) Part 1 of the study included a screening phase of up to 28 days prior to drug administration to assess eligibility. Patients were admitted to the clinical research unit (CRU) at Royal Liverpool University Hospital (Liverpool, UK)/Clatterbridge Cancer Centre NHS Foundation Trust (Bebington, Wirral, UK) on day −1 and received a single dose of 60‐mg/100 μCi [^14C]‐pamiparib orally the morning of day 1. Patients remained in the CRU until completion of assessments on day 7, when discharge criteria of ≈90% of the radioactive dose being recovered or <1% of the radioactive dose being recovered in urine and feces for 2 consecutive 24‐hour collection intervals were met. If discharge criteria were not met by day 7, patients collected 24‐hour excreta samples up to day 14 on an outpatient basis. Part 2 of the study, evaluating the safety/tolerability and antitumor activity of 60 mg twice‐daily pamiparib in patients with advanced and/or metastatic solid tumors, is ongoing and is not included in this report.
Total radioactivity concentrations of [^14C]‐pamiparib in whole blood, plasma, urine, and feces were determined by liquid scintillation counting (LSC). Radioactivity in each sample was measured for 5 minutes using a Packard Tri‐Carb liquid scintillation counter model 2100TR, 2900TR, or 3100TR (Canberra Packard, Pangbourne, Berks, Australia) with the facilities for computing quench‐corrected disintegrations per minute. Metabolite identification in plasma, urine, and feces was conducted by LC‐MS. Quantitation of the metabolites present in plasma, urine, and feces was based on the profiles of radioactivity. The limit of quantitation for radioactivity in plasma, urine, and feces was set at 1% of each chromatographic analysis (run) and 10 counts per minute (cpm) peak height; therefore, radioactive peaks that were <1% of the total run or <10 cpm peak height were reported as not detected. […]
Each aliquot of urine (about 1 mL, weighed) was added directly to liquid scintillant prior to LSC. […] The radioactivity in each pooled sample was determined by LSC. […]

[2] = total radioactivity in plasma of patients (LSC); format: in vivo, human
Text: as §1
Patients fasted overnight and 2 hours after oral administration of a single 60‐mg dose containing ≈100 μCi (3.7‐3.9 MBq) of [^14C]‐pamiparib with ≈240 mL of room‐temperature water or juice (orange or grape). The residual radioactivity present in each vial postdose was corrected from the dose. The radioactive dose of 100 μCi of [^14C]‐pamiparib provided minimum risk to patients according to the dosimetry calculation from a quantitative whole‐body autoradiography study in male and female Long Evans rats; the dose also provided sufficient signal for total radioactivity counting and quantitative radioprofiling in blood, plasma, and excreta (data on file). […]
Total radioactivity was analyzed at Covance Laboratories (Harrogate, North Yorkshire, UK), and metabolite profiling was conducted at Covance Laboratories (Madison, Wisconsin). Determination of pamiparib concentrations in plasma and total radioactivity in plasma and whole blood was performed predose and 0.25, 0.5, 1, 1.5, 2, 2.5, 3, 6, 12, 24, 48, 72, 96, 120, and 144 hours postdose. Pamiparib concentrations in plasma and urine were determined at Covance Laboratories (Salt Lake City, Utah) with validated liquid chromatography‐tandem mass spectrometry (LC‐MS/MS) methods.
Total radioactivity concentrations of [^14C]‐pamiparib in whole blood, plasma, urine, and feces were determined by liquid scintillation counting (LSC). Radioactivity in each sample was measured for 5 minutes using a Packard Tri‐Carb liquid scintillation counter model 2100TR, 2900TR, or 3100TR (Canberra Packard, Pangbourne, Berks, Australia) with the facilities for computing quench‐corrected disintegrations per minute. […] Quantitation of the metabolites present in plasma, urine, and feces was based on the profiles of radioactivity. […]

C[C@]12CCCN1CC1=NNC(=O)c3cc(F)cc4[nH]c2c1c34 [Pamiparib]
administered radioactivity excreted in the feces ([1]; 192‐hour collection period): 26.9% ± 6.8%
overall mean total recovery of radioactivity in urine and feces ([1]; 192‐hour collection period, mean ± SD, n = 4): 84.7% ± 3.5%
mass balance achieved for all 4 subjects ([1]; individual subjects): higher than 80%
geometric mean AUC0‐t of pamiparib (LC‐MS/MS) as percent of total radioactivity in plasma [2]: ~69.9%
geometric mean AUC0‐∞ of pamiparib (LC‐MS/MS) as percent of total radioactivity in plasma [2]: ~69.4%
geometric mean Cmax of pamiparib (LC‐MS/MS) as percent of total radioactivity in plasma [2]: ≈ 91.6%
AUC0‐∞ ratio plasma pamiparib/total radioactivity, geometric mean (CV%) ([2]; n = 4): 0.694 (2.7)
